For one data set, the system named is hSAA1, mSAA1, and mSAA3. The data set is described as follows: Cholesterol competition of retinol binding to SAAs. The note with it: 10 μM cholesterol, saturating retinol, fluorescence quenching at 334 nm. From the text:
Figure 2. […] Plots are representative of five independent experiments. (C) Retinoic acid lacks intrinsic fluorescence, but can quench intrinsic protein fluorescence due to energy transfer from tryptophan residues ([Cogan et al., 1976]). All-trans-retinoic acid was titrated into mSAA3 and fluorescence quenching was monitored following excitation at 296 nm. The chemical structure of retinoic acid is shown. (D) All-trans-retinoic acid was titrated into hSAA1, mSAA1, mSAA3, hTfr, and ApoA1. Fluorescence emission was monitored at 334 nm with excitation at 296 nm as in (C). Plots are representative of three independent experiments. […] Additional ligand binding measurements are provided in Figure 2—figure supplements 1 and 2. DOI: http://dx.doi.org/10.7554/eLife.03206.007 Figure 2—figure supplement 1. […] DOI: http://dx.doi.org/10.7554/eLife.03206.008 [drawing 3] Figure 2—figure supplement 2. Additional ligand binding studies on human and mouse SAAs. […] Plots are representative of three independent experiments.
Steady state fluorescence was measured using a QuantaMaster 40 spectrofluorometer (Photon Technology International, Edison, NJ) and FelixGX software program. […] For retinoic acid and other retinoids, samples were excited at 296 nm and tryptophan quenching was monitored by emission at 334 nm. […]

The target in data set [1] is human retinol binding protein 4 (hRBP4) (Homo sapiens, UniProt P02753). The data set is described as follows: Fluorescence binding assay, hRBP4. Conditions: fluorescence quenching assay as in Figure 2.
Data set [2] concerns liver Saa1 and Saa2 expression. The data set is described as follows: In vivo retinoic acid reconstitution, liver Saa expression by Q-PCR. On the set-up: species or system mouse. The note with it: vitamin A-depleted mice, intraperitoneal, daily for three days. From the text:
(§1) Figure 1. SAA expression requires dietary vitamin A. (A) Mice were maintained on a normal (Vit. A+) diet or a vitamin A-deficient (Vit. A−) diet as in Figure 1—figure supplement 1. N = 3–5 mice per condition. (B) Ileal sections were stained with anti-SAA antibody (‘Materials and methods’) and anti-rabbit IgG-Cy3 (red), and counterstained with DAPI (blue). Scale bar = 50 µm. (C) Q-PCR determination of Saa expression levels in livers of mice on a normal or vitamin A-deficient diet. N = 5 mice/condition. (D) Liver sections were stained with anti-SAA antibody and anti-rabbit IgG-Cy3 (red), and counterstained with DAPI (blue). Scale bars = 50 µm. (E and F) Analysis of SAA expression in HepG2 cells. […] SAA expression was determined by Q-PCR. N = 3 independent experiments. Mean ± SEM is plotted. nd, not detected. *p < 0.05; **p < 0.01; ***p < 0.001. p values were determined by two-tailed Student's t test. DOI: http://dx.doi.org/10.7554/eLife.03206.004 Figure 1—figure supplement 1. […] Saa transcript abundance was determined by Q-PCR. […] Saa transcript abundance was determined by Q-PCR. […] Mean ± SEM is plotted. *p < 0.05, **p < 0.01. p values were determined by the Mann–Whitney test in (A) and two-tailed Student's t test in (B). […]

The next data set addresses T1, mouse SAA3 (mSAA3) (Mus musculus, UniProt P04918).
T1 construct: hexa-histidine tag followed by thrombin cleavage site (N, cleaved yes); made in house; host or cells: Escherichia coli BL21-CodonPlus (DE3)-RILP
T1 sequence (P04918 19-122): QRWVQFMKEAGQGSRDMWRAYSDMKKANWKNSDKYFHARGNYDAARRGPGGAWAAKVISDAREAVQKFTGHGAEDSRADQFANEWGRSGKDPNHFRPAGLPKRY
The data set is described as follows: Fluorometric retinoid binding assay, mSAA3. Here is the method:
(§2) Retinoic acid lacks intrinsic fluorescence but can quench inherent protein fluorescence due to energy transfer from tryptophan residues ([Cogan et al., 1976]). We therefore measured retinoic acid binding using a modified fluorescence assay that monitored quenching of protein fluorescence (Figure 2C).
(§3) Steady state fluorescence was measured using a QuantaMaster 40 spectrofluorometer (Photon Technology International, Edison, NJ) and FelixGX software program. […] For retinoic acid and other retinoids, samples were excited at 296 nm and tryptophan quenching was monitored by emission at 334 nm. Experiments on mSAA1 and mSAA3 were done in 25 mM Tris pH 8.0, 100 mM NaCl, and 4 mM decyl maltopyranoside (DM). Experiments with hSAA1, human ApoA1, and human transferrin were conducted in PBS. […] All assays were done using a protein concentration of 0.5 μM.

In data set [3] the test system is SAA1 and 2 expression in HepG2 cells. The data set is described as follows: SAA expression in HepG2 cells by Q-PCR. In kind it is cell-based, human.
Description: as §1

The next data set has as its target T2, mouse SAA1 (mSAA1) (Mus musculus, UniProt P05366).
T2 construct: hexa-histidine tag followed by thrombin cleavage site (N, cleaved yes); made in house; host or cells: Escherichia coli BL21-CodonPlus (DE3)-RILP
T2 sequence (P05366 20-122): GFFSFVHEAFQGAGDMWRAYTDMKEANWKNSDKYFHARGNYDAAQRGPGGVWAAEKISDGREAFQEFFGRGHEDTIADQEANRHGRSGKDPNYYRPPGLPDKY
The data set is described as follows: Fluorometric retinoid binding assay, mSAA1. Conditions: for binding (in words): tryptophan fluorescence quenching, excitation 296 nm, emission 334 nm. The protocol:
as §2, §3

Data set [4] addresses T3, recombinant human SAA1 (hSAA1) (Homo sapiens, UniProt P0DJI8, D78N/H89R).
T3 construct: corresponding to human apo-SAA1α except for the presence of an N-terminal methionine; purchased PeproTech (Rocky Hill, NJ)
T3 sequence (P0DJI8 19-122 D78N/H89R): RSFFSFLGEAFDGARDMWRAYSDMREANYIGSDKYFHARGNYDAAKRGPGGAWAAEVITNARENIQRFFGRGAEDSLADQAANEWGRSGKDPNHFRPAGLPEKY
The data set is described as follows: Fluorometric retinoid binding assay, hSAA1. Conditions: for Kd: PBS, 0.5 μM protein. The protocol: as §2, §3

For data set [5], the system named is intestinal Saa1 and Saa2 expression. The data set is described as follows: Saa expression in small intestinal explants by Q-PCR. The note with it: 1 µM retinol in 0.1% DMSO, ileum explants, 6 hr. It counts as cell-based, mouse.
Another data set concerns the target T4, mSAA3-W71A (Mus musculus, UniProt P04918, W71A).
T4 construct: hexa-histidine tag followed by thrombin cleavage site (N, cleaved yes); made in house; host or cells: Escherichia coli BL21-CodonPlus (DE3)-RILP
T4 sequence (P04918 19-122 W71A): T1 sequence (P04918 19-122) with W53A
The data set is described as follows: Retinol binding assay, mSAA3-W71A mutant. Here is the method:
The mSAA3-W71A mutant was generated using the QuickChange II site-directed mutagenesis kit (Agilent Technologies, Santa Clara, CA).
as §3

Data set [6] deals with the molecule itself. The data set is described as follows: crystal structure; selenomethionyl mSAA3, space group P6(2), two subunits in the asymmetric unit, SAD phasing, 2 Å; 75-80% MPD, 0.1 M sodium acetate pH 4.5, 20°C; quaternary structure by PDBePISA.
Setting [7] is: tryptophan fluorescence quenching, excitation 296 nm, emission 334 nm, 0.5 μM protein.
Where [8] appears, read: tryptophan fluorescence quenching, excitation 296 nm, emission 334 nm.

Data on seven molecules can be found in publication PMC4129439 (eLife, 2014).

Positions count from the first letter of the chain named. Several values for one entry are separate records, joined by “and”; a condition that tells them apart may be missing. Equal values may be shown once. Read-outs that look alike come from different tables or passages of the source.

Turning to `CC(C)CCC[C@@H](C)[C@H]1CC[C@H]2[C@@H]3CC=C4C[C@@H](O)CC[C@]4(C)[C@H]3CC[C@]12C` [cholesterol], the “competitive inhibition of retinol binding” value in the data set on hSAA1, mSAA1, and mSAA3 was “unable to competitively inhibit retinol binding”.
In general, Kd refers to a measure of binding affinity in units of concentration. `CC1=C(/C=C/C(C)=C/C=C/C(C)=C/C(=O)O)C(C)(C)CCC1` [retinoic acid]: the Kd in data set [1] was 139 ± 40 nM; at mouse SAA3 (mSAA3) (setting [7]), 224 nM; in data set [4] (setting [8]), 268 nM. Moreover, the “expression of liver Saa1 and Saa2” value in data set [2] is “elevated expression”. In addition, the “expression of SAA1 and 2” value in [3] (100 nM retinoic acid in the presence of IL-1β and IL-6, retinoid-free medium) is given as “enhanced expression”. Moreover, the “binding (in words)” value at mouse SAA1 (mSAA1) is given as “weak binding”.
In the case of `CC1=C(/C=C/C(C)=C/C=C/C(C)=C/CO)C(C)(C)CCC1` [retinol], the Kd at mouse SAA3 (mSAA3) was determined as 145 nM; at mouse SAA1 (mSAA1) it was 169 nM; on mSAA3-W71A, 496 ± 127 nM; in data set [4] (all-trans-retinol titration, retinol fluorescence, excitation 348 nm, emission 460 nm), 259 nM. Further, the “expression of SAA1 and 2” value in data set [3] (1 μM retinol in the presence of IL-1β and IL-6, retinoid-free medium) is listed as “enhanced expression”. The “expression of intestinal Saa1 and Saa2” value in [5] is listed as “elevated expression”.
In the case of `CC(=O)OC/C=C(C)/C=C/C=C(C)/C=C/C1=C(C)CCCC1(C)C` [retinyl acetate], the “binding (in words)” value at mouse SAA1 (mSAA1) was “weak binding”. Besides, the Kd in [4] (setting [8]) is 497 nM and 347 nM.
Regarding `CCCCCCCCCCCCCCCC(=O)OC/C=C(C)/C=C/C=C(C)/C=C/C1=C(C)CCCC1(C)C` [retinyl palmitate], the “binding (in words)” value (on mouse SAA3 (mSAA3) (setting [8]); at mouse SAA1 (mSAA1); in data set [4] (setting [8])) was “bound weakly” each time.
For `CC1=C(/C=C/C(C)=C/C=C/C(C)=C/C=C/C=C(C)/C=C/C=C(C)/C=C/C2=C(C)CCCC2(C)C)C(C)(C)CCC1` [β-carotene], the Kd on mouse SAA3 (mSAA3) (setting [7]) was 159 nM; in data set [4] (setting [8]), 347 nM and 497 nM. Besides, the “binding (in words)” value at mouse SAA1 (mSAA1) is reported as “weak binding”.

B1: mouse serum amyloid A3 (mSAA3) (natural protein, UniProt P04918 19-122, looked up)
chain: T1 sequence (P04918 19-122)
notes: cloned into pET28(a)+ between NdeI and BamHI; monomer is 12.2 kDa; The crystal used for the structure was selenomethionyl-derivatised (grown in defined media with selenomethionine); SEC and cross-linking used the native protein; A few vector residues probably remain at the N-terminus after thrombin cleavage (surmise); also called mouse SAA3; not shown: His6, N-terminal, cleaved
As a reminder, the stoichiometry N is the number of molecules, sites or subunits per partner or assembly. Consider B1, for which, in data set [6], the “stoichiometry N” value amounted to 4.
